From ChEMBL document CHEMBL1156000, “Synthesis of 2alpha-substituted-14-epi-previtamin D3 and its genomic activity” (Bioorg Med Chem Lett, 2009)
Active and inactive are the calls of the source. The rule behind the calls is not given here.

Assays:
[1] = biological target: T1, Vitamin D3 receptor (Gallus gallus) (UniProt O42392); test: Displacement of [26,27-methyl-3H]1alpha,25-dihydroxyvitamin D3 from chick intestinal VDR after 1 hr by liquid scintillation counting
T1 sequence (whole entry): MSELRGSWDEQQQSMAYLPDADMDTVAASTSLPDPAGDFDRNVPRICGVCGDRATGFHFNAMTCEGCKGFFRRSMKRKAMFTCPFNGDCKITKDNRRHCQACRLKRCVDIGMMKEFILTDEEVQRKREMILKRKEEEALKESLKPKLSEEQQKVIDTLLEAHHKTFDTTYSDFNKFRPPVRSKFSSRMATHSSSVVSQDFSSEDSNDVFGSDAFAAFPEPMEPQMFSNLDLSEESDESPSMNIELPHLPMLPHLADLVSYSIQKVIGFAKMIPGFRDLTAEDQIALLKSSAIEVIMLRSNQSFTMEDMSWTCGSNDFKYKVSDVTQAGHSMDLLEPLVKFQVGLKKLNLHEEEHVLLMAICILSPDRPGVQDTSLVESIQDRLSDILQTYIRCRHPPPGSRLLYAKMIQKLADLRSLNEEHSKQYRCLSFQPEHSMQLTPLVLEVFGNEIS

[2] = biological target: T2, Vitamin D3 receptor (Homo sapiens) (UniProt P11473); conditions: HOS
T2 sequence (whole entry): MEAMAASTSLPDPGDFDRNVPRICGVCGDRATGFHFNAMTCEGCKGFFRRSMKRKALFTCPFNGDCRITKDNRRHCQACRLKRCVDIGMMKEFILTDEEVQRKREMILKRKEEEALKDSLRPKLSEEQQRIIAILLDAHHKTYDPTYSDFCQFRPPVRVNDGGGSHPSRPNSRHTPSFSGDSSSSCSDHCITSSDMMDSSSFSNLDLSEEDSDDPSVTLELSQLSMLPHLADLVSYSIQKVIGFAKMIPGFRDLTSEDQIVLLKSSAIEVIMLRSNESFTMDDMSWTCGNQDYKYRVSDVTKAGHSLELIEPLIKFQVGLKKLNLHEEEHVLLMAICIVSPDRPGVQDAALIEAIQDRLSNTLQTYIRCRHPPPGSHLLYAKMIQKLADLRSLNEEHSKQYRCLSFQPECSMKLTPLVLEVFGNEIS
Description: Agonist activity at human VDR expressed in human HOS cells co-transfected with RXR gene assessed as osteocalcin promoter gene transactivation after 24 hrs by luciferase assay

SMILES | relative binding affinity (RBA) [1] | ED50 [2] [pM] | relative binding affinity (RBA) ([1]; tested as the 2H-labelled form) | ED50 ([2]; tested as the 2H-labelled form) [pM]
CC1=C(/C=C\C2=CCC[C@@]3(C)[C@@H]2CC[C@@H]3[C@H](C)CCCC(C)(C)O)C[C@@H](O)[C@H](OCCCO)[C@@H]1O | Active | 950 |  | 
CC1=C(/C=C\C2=CCC[C@@]3(C)[C@@H]2CC[C@@H]3[C@H](C)CCCC(C)(C)O)C[C@@H](O)[C@H](Cc2ccccc2)[C@@H]1O | Active | 30200 |  | 
CC1=C(/C=C\C2=CCC[C@@]3(C)[C@@H]2CC[C@@H]3[C@H](C)CCCC(C)(C)O)C[C@@H](O)[C@H](CCCO)[C@@H]1O | Active | 690 |  | 
CC1=C(/C=C\C2=CCC[C@@]3(C)[C@@H]2CC[C@@H]3[C@H](C)CCCC(C)(C)O)C[C@@H](O)[C@H](c2ccccc2)[C@@H]1O | Active | 880 |  | 
CC1=C(/C=C\C2=CCC[C@@]3(C)[C@@H]2CC[C@@H]3[C@H](C)CCCC(C)(C)O)C[C@@H](O)C[C@@H]1O |  |  | Active | 460
CCCC[C@H]1[C@H](O)CC(/C=C\C2=CCC[C@@]3(C)[C@@H]2CC[C@@H]3[C@H](C)CCCC(C)(C)O)=C(C)[C@H]1O | Active | 5770 |  | 
CC1=C(/C=C\C2=CCC[C@@]3(C)[C@@H]2CC[C@@H]3[C@H](C)CCCC(C)(C)O)C[C@@H](O)[C@H](C)[C@@H]1O | Active | 120 |  | 
